Measured values published in patent publication EP4741818A1, “COMPOUND TREATMENT METHOD, METHOD FOR PRODUCING COMPOUND OR REACTION PRODUCT OF SAME, SYSTEM FOR TREATING COMPOUND, AND REPLACEMENT TREATMENT COLUMN” (Flugelz Co., Ltd., priority 2023, dated 2025).
In brackets after ≈: the same amount, converted by molar mass. Several values for one entry are separate records, joined by “and”; a condition that tells them apart may be missing. Equal entries are not always repeated.

Assay: Solubility of the compound in organic solvents and eluents
Type: physicochemical
Conditions: for Solubility (mg/mL) at 25°C / Solubility: 25°C
[1] = eluent hexane and dichloromethane at 6:4 (volume ratio)

| SMILES | Solubility (mg/mL) at 25°C (Dichloromethane) | Solubility (mg/mL) at 25°C (Ethyl acetate) | Solubility (Example 4 eluent Hexane/ethyl acetate (volume ratio: 8:1)) | Solubility (Example 5 eluent Hexane/toluene (volume ratio: 2:1)) | Solubility (Example 6 eluent Hexane/THF (volume ratio: 8:1)) | Solubility (Example 7 eluent Hexane/acetone (volume ratio: 8:1)) | Solubility (mg/mL) at 25°C (Toluene) | solubility in the used eluent [1] | solubility in the used eluent (eluent hexane and ethyl acetate at 8:1 (volume ratio)) | solubility in the used eluent (eluent hexane and toluene at 3:2 (volume ratio)) |
| --- | --- | --- | --- | --- | --- | --- | --- | --- | --- | --- |
| c1ccc(-c2nc(-c3ccccc3)nc(-c3ccc(-n4c5ccc(N(c6ccccc6)c6ccccc6)cc5c5cc(N(c6ccccc6)c6ccccc6)ccc54)cc3)n2)cc1 [DACT-II, 9-[4-(4,6-diphenyl-1,3,5-triazin-2-yl)phenyl]-N,N,N',N'-tetraphenyl-9H-carbazole-3,6-diamine] | 100 mg/mL (≈ 124 mM) | 6 mg/mL (≈ 7.42 mM) | <1100 µg/mL | <5900 µg/mL | <2100 µg/mL | <300 µg/mL | 30 mg/mL (≈ 37.1 mM) | 3000 µg/mL | 1000 µg/mL and 1100 µg/mL | 5000 µg/mL |
| c1ccc(N(c2ccccc2)c2ccc3[nH]c4ccc(N(c5ccccc5)c5ccccc5)cc4c3c2)cc1 [DACT-II precursor, N,N,N',N'-tetraphenyl-9H-carbazole-3,6-diamine] | 30 mg/mL (≈ 59.8 mM) | 4 mg/mL (≈ 7.97 mM) |  |  |  |  | 10 mg/mL (≈ 19.9 mM) | 3000 µg/mL |  |  |
